Read-outs that look alike come from different tables or passages of the source.
How the values were obtained:
[1] = test system: A. baumannii strain 98-37-09; experiment: Cellular accumulation of minocycline (HPLC, triple-quadrupole MS); type: cell-based, Acinetobacter baumannii; conditions: for Minocylcine Per Cell (femtomoles cell^−1): human serum with 0.5 μg mL^−1 minocycline plus test compound (0.5×MEC, 1×MEC), 48 hours
Procedure: High pressure liquid chromatography and triple-quadrupole mass spectrometry were used to measure the A. baumannii intracellular levels of minocycline during growth in human serum in the absence and presence of each putative efflux pump inhibitor. […] Cultures were incubated for 48 hours with shaking, at which point an aliquot was removed, serially diluted, and plated to determine the number of viable CFU per mixture. The remainder of the cells were pelleted by centrifugation at 900×g at 4° C., washed twice in PBS, mechanically lysed with a FastPrep cell disrupter (MP Biomedicals, Santa Ana, Calif.) for 20 seconds at 5 m s^−1 and the cellular debris was pelleted via centrifugation at 900×g and 4° C. The amount of minocycline present within the supernatant of ruptured cells was measured. Briefly, doxycycline (0.5 μg mL^−1) was first added to each supernatant to serve as an internal control to account for sample-to-sample preparation variability. The supernatant was then combined with acetonitrile (ACN) at a 1:10 ratio and centrifuged at 16,000×g, at 4° C., to collect minocycline and doxycycline. […] residual liquid was evaporated in a speed vacuum for 2 hours at 8,000×g. To quantify the amount of antibiotics retained, sample materials were suspended in 50% acetonitrile, filtered through a 0.2 μm low protein binding hydrophilic membrane (Millipore, Billerica, Mass.) then separated on Shimadzu high performance liquid chromatography instrument (Fisher Scientific) using a BetaBasic C18 reverse phase column (Thermo Scientific). Separation was carried out with two mobile phase solutions consisting of solution (A) water with 0.1% formic acid and solution (B) 100% ACN. The gradient profile of the chromatography runs was as follows: from 0 to 0.1 min 8% solution B, ramp step wise (37% to 60% solution B) from 0.1 to 6.5 min then holding for one minute before ramping down from 60% to 10% from 7.5 to 8 min. This was followed a hold at 10% solution B for one minute. […] The column was equilibrated in 8% solution B at 40° C. and the flow rate was set to 0.2 mL min^−1. Mass spectrometry analysis of fractions was carried out using a Thermo TSQ Quantum Ultra triple quadrupole mass spectrometer (Fisher Scientific). Data were analyzed using Xcalibur software (Thermo Scientific); the following parameters were used to detect minocycline and the internal control doxycycline: 458.208 m/z→282.971 m/z (collision energy=43, tube lens=119) for minocycline and 445.144 m/z→266.900 m/z (collision energy=39, tube lens=127) for doxycycline. Analysis of the raw data was conducted by using the area under the curve calculations with the Genesis algorithm to determine the concentration in each sample. The difference between the peak intensity and the y intercept of pre-established minocycline and doxycycline standard curves was divided by the slope of the standard curve to quantify the amount of minocycline within each sample. The total concentration of minocycline within each cell was calculated by normalizing to the number of cells within each corresponding culture.

[2] = test system: A. baumannii strain 98-37-09; experiment: MEC determination: potentiation of minocycline toward serum grown A. baumannii; type: cell-based, Acinetobacter baumannii; conditions: for Log-reduction Colony Forming Units (ml^−1): 1×MEC of compound plus minocycline in serum, versus minocycline alone, plating; for MEC: lowest concentration inhibiting growth in 100% human serum with 0.5 μg ml^−1 minocycline, 48 hr
Procedure: The TimTec ActiProbe-25K diversity-set and Natural Product compound libraries (29,900 compounds total; TimTec, Newark, Del.) were initially screened for putative efflux pump inhibitors by identifying compounds that potentiated the antimicrobial property of a sub-inhibitory concentration of minocycline toward A. baumannii grown in human serum. To do so, A. baumannii strain 98-37-09 was grown for 16 hours in LB medium at 37° C. on a rotary shaker at 225 rpm. Approximately 1×10^5 CFU were then transferred to individual wells of a 96-well round-bottom plate (Corning Costar, Tewksbury, Mass.) containing 100 μL of human serum supplemented with of minocycline (0.5 μg mL^−1; 0.5× minimum inhibitory concentration in serum) and individual members of the Timtec ActiProbe or Natural product library (50 μM). Plates were then incubated at 37° C. for 48 hours. Growth was measured as a function of turbidity. Putative efflux pump inhibitors were identified as compounds that inhibited A. baumannii growth in human serum containing minocycline and were subsequently retested in triplicate, as indicated above. Untreated A. baumannii grown in serum supplemented with minocycline+/−PAβN served as positive and negative controls, respectively. […] Repeat testing in which well constituents were serial diluted and plated on LB agar plates validated that 85 compounds did indeed limit A. baumannii growth in serum supplemented with minocycline, reducing the number of viable colony forming units between 2-6 log cfu in comparison to minocycline alone treated cells.
The MEC was defined as the lowest concentration of test compound required to inhibit the growth of A. baumannii in serum in the presence of 0.5 μg ml^−1 minocycline. Plating confirmed that addition of 1×MEC of each compound elicited ≥1.9-log reduction in A. baumannii cells grown in serum supplemented with minocycline alone (see Table 1).

[3] = test system: human HepG2 cells; experiment: MTT cell viability (cytotoxicity) assay
Procedure: To distinguish putatively non-toxic from human cytotoxic compounds, conventional 3-(4,5-dimethylthiazol-2yl)-2,5-diphenyltetrazolium bromide (MTT) cell viability assays (American Type Culture Collection, Manassas, Va.) were performed for each compound of interest at 1× and 4× their MEC. Briefly, human HepG2 cells were grown to approximately 1×10^6 cells per well in Dulbecco's Modified Eagle Media supplemented with 10% fetal bovine serum (Invitrogen, Carlsbad, Calif.) then treated with 1× or 4× the MEC of the indicated […] Cell viability was measured following the addition of the tetrazolium salt (MTT) as per the manufacturer's recommendations; cells challenged with 50 ug ml^−1 Mitomycin C (Sigma Aldrich) and mock-treated cells served as positive and negative controls, respectively.

Compound | Minocylcine Per Cell (femtomoles cell^−1) [1] [femtomoles cell^−1] | Log-reduction Colony Forming Units (ml^−1) [2] [log] | MEC [2] [µg/mL] | % Viability [3] [%] | % Viability ([3]; human, 48 h, 4 ×MEC) [%] | cellular minocycline concentration ([1]; growth in serum (efflux active conditions), minocycline without efflux inhibitor) | HepG2 survival ([3]; minocycline tested alone at 2 μg ml^−1) [%]
c1ccc(CN2CCN(Cc3ccccc3)C2c2cccs2)cc1 [ST007852] | 5.9E−05 | 4.21 | 4 | 65.77 |  |  | 
CC1CCN(Cc2cc(Cl)c3cccnc3c2O)CC1 [ST007924] | 5.12E−05 | 2.42 | 4 | 67.45 |  |  | 
CCOc1ccc(/C=N/c2ccc(S(N)(=O)=O)cc2)cc1 [ST009694] | 6.8E−07 | 6.24 | 4 | 74.6 |  |  | 
NS(=O)(=O)c1ccc(/N=C/c2ccc(F)cc2)cc1 [ST009698] | 1.52E−05 | 6.45 | 64 | 73.56 |  |  | 
NS(=O)(=O)c1ccc(/N=C/c2ccc(Br)cc2)cc1 [ST009699] | 1.15E−04 | 6.84 | 2 | 70.45 |  |  | 
CCOc1ccccc1C(=O)Nc1sc2c(c1C(=O)OC(C)C)CCCC2 [ST009896] | 3.99E−05 | 2.45 | 2 | 73.54 |  |  | 
O=C(c1ccc([N+](=O)[O-])cc1Cl)N1CCCc2ccccc21 [ST011123] | 1.19E−05 | 2.83 | 32 | 67.89 |  |  | 
O=[N+]([O-])c1cc2c(cc1/C=N/c1ccc(S(=O)(=O)Nc3nccs3)cc1)OCO2 [ST012902] | 1.1E−05 | 3.71 | 2 | 55.1 |  |  | 
O=[N+]([O-])c1cccc(/C=N/c2ccc(S(=O)(=O)Nc3nccs3)cc2)c1 [ST012961] | 1.13E−04 | 6.23 | 32 | 59.32 |  |  | 
COc1ccc(/C=N/c2ccc(S(N)(=O)=O)cc2)c(OC)c1 [ST016442] | 1.96E−04 | 3.88 | 2 | 53.43 |  |  | 
COc1ccc(OC)c(/C=N/c2ccc(S(N)(=O)=O)cc2)c1 [ST016443] | 4.4E−04 | 2.00 | 2 | 57.49 |  |  | 
CCc1ccc(/C=N/c2ccc(S(N)(=O)=O)cc2)cc1 [ST016444] | 2.02E−05 | 4.86 | 16 | 53.92 |  |  | 
COc1ccc(O)c(/C=N/N=C/c2cc(OC)ccc2O)c1 [ST020959] | 1.27E−04 | 6.90 | 2 |  | 51.04 |  | 
CCCCCCCN1C(=O)/C(=c2\sc3n(c2=O)C(c2ccc(OC(=O)c4ccco4)cc2)C(C(=O)OC)=C(C)N=3)c2ccccc21 (stereo not drawn) [ST029434] | 1.73E−08 | 3.02 | 64 |  |  |  | 
N#Cc1c(/N=C/c2ccco2)sc2c1CCCC2 [ST033063] | 5.84E−08 | 1.93 | 2 |  |  |  | 
COc1ccc(C=O)cc1Cn1nnc2ccccc21 [ST033235] | 6.652E−08 | 2.21 | 32 |  |  |  | 
Cc1cccc(N(CC(=O)NC23CC4CC(CC(C4)C2)C3)S(=O)(=O)c2ccccc2)c1 [ST034012] | 1.55E−07 | 2.00 | 2 |  |  |  | 
COc1ccccc1C1N(Cc2ccccc2)CCN1Cc1ccccc1 [ST036365] | 3.59E−08 | 3.50 | 4 |  |  |  | 
CCOC(=O)C1=C(CN2CCCCC2)NC(=O)NC1c1ccc2c(c1)OCO2 (stereo not drawn) [ST058478] | 1.52E−07 | 6.33 | 64 |  |  |  | 
CN1CCN(C(=O)CCSc2ccccc2)CC1 [ST058672] | 3.2E−07 | 5.97 | 4 |  |  |  | 
CC(C)CCOC(=O)C(NS(=O)(=O)c1ccc2c(c1)CCN2S(C)(=O)=O)c1ccccc1 (stereo not drawn) [ST058811] | 2.48E−07 | 6.17 | 4 |  |  |  | 
CCOc1cc(C(=O)N2CC(=O)Nc3ccccc32)cc(OCC)c1OCC [ST059010] | 3.78E−08 | 6.11 | 32 |  |  |  | 
Nc1nnc(SCC(=O)N2CCCC2)s1 [ST059421] | 1.27E−07 | 6.31 | 4 |  |  |  | 
CCN(CC)S(=O)(=O)c1ccc(NC(=O)C2CC(=O)N(c3ccc(OC)cc3)C2)cc1 (stereo not drawn) [ST059822] | 1.36E−07 | 6.23 | 4 |  |  |  | 
CCCCOc1ccc(C(=O)NCCC2=CCCCC2)cc1 [ST060056] | 4.22E−08 | 5.38 | 4 |  |  |  | 
COc1ccc(-c2c3c([nH]c(=O)c2C#N)CCCCC3)cc1 [ST060355] | 1.23E−08 | 6.94 | 32 |  |  |  | 
CN(C)c1ccc(O)c2c1C[C@H]1C[C@H]3[C@H](N(C)C)C(O)=C(C(N)=O)C(=O)[C@@]3(O)C(O)=C1C2=O [minocycline, reference compound] |  |  |  |  |  | 1.58×10^−10 femtomoles per bacterial cell | 77.9
